Assay results published in patent US9358272B2, “Multicomponent compositions and their uses” (THE ADMINISTRATORS OF THE TULANE EDUCATIONAL FUND, priority 2011, dated 2016).
“Also recorded” adds a separate entry of the source.

Tests used:
[1] = tested on: gene expression in pancreatic carcinoid BON cells; assay: RT-PCR / real-time PCR gene expression, BON cells; type: cell-based, Human
Protocol: RT-PCR, Real-Time PCR and PCR Array
Total RNAs were isolated from tumor cells as described in the kit protocol (Invitrogen, Carlsbad, Calif.).
As for real-time PCR, the primers are the same as described in Table 1. Real-time PCR assays were performed on a Bio-Rad iCycler (Hercules Calif.). Assays were set up using iScript™ cDNA Synthesis Kit and iQ™ SYBR Green Supermix (Bio-Rad). The cDNA synthesis was run for one cycle of 25° C. for 5 min, 42° C. for 30 min, 85° C. for 5 min, and held at 4° C. PCR reactions were run in 10 μl reactions. Each 10 μl reaction contained 4 μl template (either cDNA, genomic or plasmid DNA), 5 μl iQ SYBR Green Supermix (BioRad), and 0.25 μM each of the corresponding forward and reverse primers. PCR was further run under the conditions below: one cycle of 95° C. for 5 min for initial denaturation and 40 cycles of 95° C. for 30 s and 56° C. (SST), 57° C. (SSTR2) for 30 s for primer annealing and product elongation. For melt curve data collection and analysis, one cycle of 95° C. for 1 min and 55° C. for 1 min was run with an increase of the temperature at a rate of 0.5° C. from 55° C. to 95° C. The experiments were done by holding at 15° C. β-actin was used as internal control. Results were calculated using the comparative 2^−ΔΔCT methods as described in Livak et al., Methods, 2001, Vol. 25, pp. 402-408.
(§1) RT-PCR was performed on total RNA that was isolated from tumor cells as described in the protocol (Invitrogen, Carlsbad, Calif.). All primers for SST, BN, and PACAP receptors were obtained from previously published reports, such as Sun et al. 2011. The PCR amplification is regularly 35 cycles, with more or less cycles due to the difference in RNA abundance of these investigated genes. Primers used for real-time PCR analyses were identical to those described above. Real-time PCR assays were performed as described in Sun et al 2011. β-actin was used as the internal control and results were calculated by applying 2^−ΔΔCT methods as described above.

[2] = tested on: Jurkat cells; assay: Cell proliferation assay (MTT), Jurkat cells; type: cell-based
Protocol: (§2) Cell Proliferation Assay (MTT) The cell proliferation assay (Promega, Madison, Wis.) was performed as described in Sun et al., Bioorg Med Chem Lett, 2004, Vol. 14, pp. 2041-2046. The absorbance was measured and recorded at 570 nm by a Victor Plate Reader (PerkinElmer, Boston, Mass.).

[3] = tested on: prostate cancer DU-145 cells; assay: Cell proliferation assay (MTT), DU-145 cells; type: cell-based; details: single agents and combinations
Protocol: as §2

[4] = tested on: T-ALL HPB-ALL cells; assay: Cell proliferation assay (MTT), HPB-ALL cells; type: cell-based, Human
Protocol: as §2

[5] = tested on: ovarian cancer NCI/ADR-RES cells; assay: Cell proliferation assay (MTT), NCI/ADR-RES cells; type: cell-based
Protocol: as §2

[6] = tested on: cervical cancer Hela cells; assay: Cell proliferation assay (MTT), cervical cancer Hela cells; type: cell-based, Human; details: single agents and combinations, VPA 2.5 mM in FIGS. 19, 22
Protocol: (§4) Briefly, fifty μl of medium with or without tested compounds was added to 96-well plates. Another 50 μl of tested cancer cells (1×10^5 cells/ml) suspended in culture medium was dispensed into each well. The plates were incubated at 37° C. for 3 days. Afterward, plates were added with a 15 μl dye solution per well and incubated at 37° C. for 4 hours. To each well was then added 100 μl of the solubilization solution and the plates were incubated at 37° C. again until the contents in each well became a uniformly colored solution. The plates were measured at 570 nm by a Victor Reader (PerkinElmer).
(§5) Briefly, 50 μl aliquots of medium with different concentrations of compounds were added to 96-well plates. All compound concentrations were tested in triplicate. Another 50 μl of the cell stock (1×10^5 cells/ml of media) was dispensed into each test well and the plates were incubated at 37° C. in a CO2 incubator for 3 days. Following the incubation period, 15 μl of the dye solution was added to each well and the plates were then incubated at 37° C. for 4 hours, followed by the addition of 100 μl per well of the solubilization solution. The plates were incubated at 37° C. until the contents in each well became a uniform-colored solution. The absorbance was measured and recorded at 570 nm by a Victor Plate Reader.

[7] = tested on: medullary thyroid cancer (MTC) TT cells; assay: Cell proliferation assay (MTT), TT cells; type: cell-based; details: single agents and combinations
Protocol: The cell proliferation assay was performed as described previously in Sun et al., Bioorg Med Chem Lett, 2004, Vol. 14, pp. 2041-2046. Briefly, 50 μl aliquots of medium with different concentrations of compounds were added to 96-well plates. All compound concentrations were tested in triplicate. Another 50 μl of the cell stock (1×10^5 cells/ml of media) was dispensed into each test well and the plates were incubated at 37° C. in a CO2 incubator for 3 days. Following the incubation period, 15 μl of the dye solution was added to each well and the plates were then incubated at 37° C. for 4 hours, followed by the addition of 100 μl per well of the solubilization solution. The plates were incubated at 37° C. until the contents in each well became a uniform-colored solution. The absorbance was measured and recorded at 570 nm by a Victor Plate Reader.

[8] = tested on: small cell lung cancer DMS-53 cells; assay: Cell proliferation assay (MTT), DMS-53 cells; type: cell-based; details: single agents and combinations, 2.5 mM VPA or 10 uM SBHA in FIGS. 21, 24
Protocol: as §4, §5

[9] = tested on: hepatoma HTB-52 cells; assay: VPA-induced cell morphological change, HTB-52 cells; type: cell-based
Excerpt: (§3) The cancer cells were inspected and photographed under an inverted light microscope at 10× magnification.

[10] = tested on: gene expression in hepatoma HTB-52 cells; assay: RT-PCR / real-time PCR gene expression, HTB-52 cells; type: cell-based
Protocol: as §1, with “RT-PCR, Real-Time PCR RT-PCR” for “RT-PCR”

[11] = tested on: pancreatic carcinoid BON cells; assay: Cell proliferation assay (MTT), BON cells; type: cell-based, Human; details: single agents and combinations, 2.5 mM VPA or 10 uM SBHA in FIGS. 20, 23
Protocol: as §4, §5

[12] = tested on: ovarian cancer SKOV3 cells; assay: Cell proliferation assay (MTT), SKOV3 cells; type: cell-based; details: single agents and combinations
Protocol: as §2

[13] = tested on: Leukemia MOLT-4 cells; assay: Cell proliferation assay (MTT), MOLT-4 cells; type: cell-based; details: single agents and combinations
Protocol: as §2

[14] = tested on: CNDT2 cells; assay: Cell proliferation assay (MTT), CNDT2 cells; type: cell-based; details: single agents and combinations
Protocol: as §2

[15] = tested on: cervical cancer Hela tumors; assay: In vivo tumor growth and treatment, Hela tumors; design: species or system nude mice; details: for tumor inhibitory rate: Hela tumors in nude mice
Protocol: In Vivo Tumor Growth and Treatment
All mice were monitored weekly. Tumor volumes were measured at 11 days post-implantation and bodyweights taken once a week. Tumors were weighed and photographed when experiments were over.
After being harvested during exponential growth phase, cells were washed 3 times with ice-cold PBS and then re-suspended in ice-cold PBS at a cell density of 4×10^7 cells/ml. […] Tumor-carrying mice were separated into four groups (n=8-10) for further treatment using s.c. injections that was applied in the flank opposite of the tumors. A control group was injected with PBS, and three tested groups were treated with compounds. One group received conjugate COL-SST (2 mg/kg) and one group received 200 mg/kg of VPA. The last group was treated with 100 mg/kg of VPA in combination with 1 mg/kg of COL-SST. All mice were injected once a day, five times a week. Tumor volumes were measured and bodyweights taken once a week.
After being harvested during their exponential growth phase, cells were washed 3 times with ice-cold PBS and then re-suspended in ice-cold PBS at a cell density of 4×10^7 cells/ml. […] Tumor-carrying mice were separated into four groups (n=8-10) for further treatment using s.c. injections that were applied in the flank opposite to the tumors. A control group was injected with PBS and three tested groups were treated with compounds. One group received conjugate COL-SST (2 mg/kg) and one group received 200 mg/kg of VPA. The last group was treated with 100 mg/kg of VPA in combination with 1 mg/kg of COL-SST. All mice were injected once a day, five times a week. Tumor volumes were measured and bodyweights taken once a week.

[16] = tested on: prostate cancer PC-3 cells; assay: Cell proliferation assay (MTT), PC-3 cells; type: cell-based; details: single agents and combinations
Protocol: as §2

[17] = tested on: HPB-ALL cells; assay: VPA-induced cell morphological change, HPB-ALL cells; type: cell-based, Human
Excerpt: as §3

[18] = tested on: Leukemia MOLT-4 cells; assay: VPA-induced cell morphological change, MOLT-4 cells; type: cell-based
Excerpt: as §3

[19] = tested on: osteosarcoma U2OS cells; assay: Cell proliferation assay (MTT), U2OS cells; type: cell-based, Human
Protocol: as §2

[20] = VPA treatment, confirmed by real-time PCR

For CCCC(CCC)C(=O)O [VPA, valproic acid], the “effect on expression of Notch receptors (RT-PCR), in words” value ([1]; VPA at serial doses, FIG. 52) was “increased the expression of Notch1, Notch2, and Notch3; Notch4 was undetectable”, the “induction of SSTR2 expression” value [1, 20] was 25 fold and the “effect on expression of SST, BN and PACAP receptors (RT-PCR), in words” value ([1]; VPA treatment, dose-dependent, FIG. 55) was “induced the expression of SSTR2 (25-fold, confirmed by real-time PCR), SSTR4, BRS3, GRPR, and VPAC2 and suppressed SSTR1”. For the same compound, the “slight decrease of SSTR5 expression” value ([1]; VPA treatment, real-time PCR) was 0.9 fold, the “effect on Notch1, SST, and SSTR2 expression, in words” value ([1]; different concentrations of VPA, beta-actin as control, FIG. 17) was “activated expression of Notch1, SST, and SSTR2” and the “cell growth suppression (MTT), in words” value [2] was “displayed its anti-proliferative ability”. The “cell growth suppression (MTT), in words” value [3] was “displayed its anti-proliferative ability; also recorded: displays its anti-proliferation ability”, the “cell growth suppression (MTT), in words” value [4] was “displayed its anti-proliferative ability” and the “cell growth suppression (MTT), in words” value [5] was “displayed its anti-proliferative ability; also recorded: displays its anti-proliferation ability”. For the same compound, the “cell growth suppression (MTT), in words” value [6] was “displayed growth inhibition; also recorded: suppressed cell proliferation in a dose-dependent manner; also recorded: induced growth arrest; also recorded: suppressed cervical cancer Hela cell growth in a dose-dependent manner”, the “cell growth suppression (MTT), in words” value [7] was “induced growth arrest” and the “cell growth suppression (MTT), in words” value [8] was “displayed growth inhibition; also recorded: induced growth arrest”. The “cell morphological change, in words” value [9] was “could induce morphological change”, the “effect on expression of Notch receptors (RT-PCR), in words” value ([10]; VPA at serial doses, FIG. 52) was “decreased Notch1 and Notch2, whereas Notch3 and Notch4 were undetectable” and the “effect on expression of SST, BN and PACAP receptors (RT-PCR), in words” value ([10]; VPA treatment, FIG. 55) was “increased the expression of SSTR2 (19.8-fold, confirmed by real-time PCR), SSTR3, SSTR5, GRPR, BRS3, and VPAC1”. The “increase of SSTR2 expression” value [10, 20] was 19.8 fold, the “cell growth suppression (MTT), in words” value [11] was “displayed growth inhibition; also recorded: induced growth arrest; also recorded: suppressed growth” and the “cell growth suppression (MTT), in words” value [12] was “displayed its anti-proliferative ability; also recorded: displays its anti-proliferation ability”. The “cell growth suppression (MTT), in words” value [13] was “displayed its anti-proliferative ability; also recorded: suppressed growth; also recorded: displays its anti-proliferation ability”, the “cell growth suppression (MTT), in words” value [14] was “suppressed growth” and the tumor inhibitory rate ([15]; VPA at 200 mg/kg s.c. once a day, five times a week, FIG. 42) was 36.7%. The tumor inhibitory rate ([15]; VPA at 200 mg/kg, FIG. 37) was 46%, the “suppression of Hela tumors, in words” value ([15]; nude mice, FIG. 42) was “induced suppression” and the “cell growth suppression (MTT), in words” value [16] was “displayed its anti-proliferative ability; also recorded: displays its anti-proliferation ability”. For the same compound, the “cell morphological change, in words” value [17] was “no effect”, the “cell morphological change, in words” value [18] was “no effect” and the “cell growth suppression (MTT), in words” value [19] was “displayed its anti-proliferative ability”.
